According to paper PMC4894499 (Journal of pharmaceutical sciences, 2016):

Tests used:
CYP3A4 and UGT1A1 = conditions: human SCH; cited from earlier work
[1] = Bile acid toxicity: intracellular ATP; assay type: cell-based, rat; conditions: rat, sandwich-cultured hepatocytes (SCH)
[2] = Bile acid toxicity: intracellular ATP; assay type: cell-based, human; conditions: human, sandwich-cultured hepatocytes (SCH)
[3] = Bile acid toxicity: LDH release in rat SCH; assay type: cell-based; conditions: rat, sandwich-cultured hepatocytes (SCH)
[4] = Bile acid toxicity: LDH release in human SCH; assay type: cell-based; conditions: human, sandwich-cultured hepatocytes (SCH)
human SCH [5] = conditions: cited from earlier work
human SCH [6] = conditions: fold greater; cited from earlier work
human SCH [7] = conditions: cited from earlier work; for Effect on total (cell + bile) and cellular accumulation of TCA: concentration-dependent
human SCH [8] = conditions: cited from earlier work; remark: listed apart in the source
rat SCH [9] = conditions: cited from earlier work
rat SCH [10] = tested on: rat SCH
human SCH [11] = test: Intracellular bile acid concentrations by LC-MS/MS in human SCH; assay type: in vitro ADME; conditions: LCA-treated SCH
P-gp = conditions: human SCH, treatment for 3 days; cited from earlier work
rat SCH [12] = test: Bile acid toxicity: intracellular ATP; assay type: cell-based; conditions: rat SCH, 0 – 0.2 mM LCA, 6, 12, 24 hr
human SCH [13] = test: Bile acid toxicity: intracellular ATP; assay type: cell-based; conditions: human SCH, 0 – 0.2 mM LCA, 6, 12, 24 hr
rat SCH [14] = test: Bile acid toxicity: LDH release in rat SCH; assay type: cell-based; conditions: rat SCH, 0 – 0.2 mM LCA, 6, 12, 24 hr
human SCH [15] = test: Bile acid toxicity: LDH release in human SCH; assay type: cell-based; conditions: human SCH, 0 – 0.2 mM LCA, 6, 12, 24 hr
human SCH [16] = conditions: cited from earlier work; remark: listed apart in the source
rat SCH [17] = conditions: cited from earlier work; remark: listed apart in the source

CO[C@H]1/C=C/O[C@@]2(C)Oc3c(C)c(O)c4c(O)c(cc(O)c4c3C2=O)NC(=O)/C(C)=C\C=C\[C@H](C)[C@H](O)[C@@H](C)[C@@H](O)[C@@H](C)[C@H](OC(C)=O)[C@@H]1C [rifamycin SV]
Effect on intracellular accumulation of buprenorphine and midazolam (CYP3A4 and UGT1A1): increased

C[C@H](CCC(=O)O)[C@H]1CC[C@H]2[C@@H]3[C@H](O)C[C@@H]4C[C@H](O)CC[C@]4(C)[C@H]3CC[C@]12C [CDCA, chenodeoxycholic acid]
CC50 at 24 h [1]: 351 µM
CC50 at 24 h [2]: 568 µM
CC50 at 24 h [3]: 243 µM
CC50 at 24 h [4]: 972 µM

COC(=O)N[C@H](C(=O)N[C@@H](Cc1ccccc1)[C@@H](O)CN(Cc1ccc(-c2ccccn2)cc1)NC(=O)[C@@H](NC(=O)OC)C(C)(C)C)C(C)(C)C [atazanavir]
Effect on CGamF accumulation (human SCH [5]): potently inhibited

CCCNS(=O)(=O)Nc1ncnc(OCCOc2ncc(Br)cn2)c1-c1ccc(Br)cc1 [macitentan]
Hepatocyte concentration relative to medium concentration (human SCH [6]): about 100 fold
Effect on BEI and apparent biliary clearance of TCA (TCA biliary excretion) (human SCH [7]): significantly decreased
Effect on total (cell + bile) and cellular accumulation of TCA (human SCH [7]): significantly decreased

CN(CCOc1ccc(CC2SC(=O)NC2=O)cc1)c1ccccn1 (stereo not shown) [rosiglitazone]
Effect on canalicular efflux of TCA (human SCH [8]): significantly reduced

CCCC1O[C@@H]2C[C@H]3[C@@H]4CCC5=CC(=O)C=C[C@]5(C)[C@H]4[C@@H](O)C[C@]3(C)[C@]2(C(=O)CO)O1 (stereo partly shown) [budesonide]
Effect on canalicular efflux of TCA (human SCH [8]): minimal effects

Cc1cccc(C)c1OCC(=O)N[C@@H](Cc1ccccc1)[C@@H](O)C[C@H](Cc1ccccc1)NC(=O)[C@H](C(C)C)N1CCCNC1=O [lopinavir]
Effect on TCA biliary excretion (BEI and CLb, app, in vitro) (rat SCH [9]): significantly reduced
Effect on intracellular accumulation of TCA (rat SCH [9]): increased

C[C@H](CCC(=O)NCCS(=O)(=O)O)[C@H]1CC[C@H]2[C@@H]3[C@H](O)C[C@@H]4C[C@H](O)CC[C@]4(C)[C@H]3CC[C@]12C [TCDCA, taurochenodeoxycholic acid]
Cellular concentration relative to CDCA, fold lower (rat SCH [10]): ~ 100 fold

C[C@H](CCC(=O)NCCS(=O)(=O)O)[C@H]1CC[C@H]2[C@@H]3CC[C@@H]4C[C@H](O)CC[C@]4(C)[C@H]3CC[C@]12C [TLCA, taurolithocholic acid]
Intracellular concentration in human SCH relative to rat SCH, fold lower (human SCH [11]): ~ 100 fold

CO[C@H]1/C=C/O[C@@]2(C)Oc3c(C)c(O)c4c(O)c(c(/C=N/N5CCN(C)CC5)c(O)c4c3C2=O)NC(=O)/C(C)=C\C=C\[C@H](C)[C@H](O)[C@@H](C)[C@@H](O)[C@@H](C)[C@H](OC(C)=O)[C@@H]1C [rifampicin]
Effect on BEI of digoxin (P-gp): increase

CC(C)(C)NC(=O)[C@@H]1CN(Cc2cccnc2)CCN1C[C@@H](O)C[C@@H](Cc1ccccc1)C(=O)N[C@H]1c2ccccc2C[C@H]1O [indivanir]
Effect on CGamF accumulation (human SCH [5]): potently inhibited

C[C@H](CCC(=O)O)[C@H]1CC[C@H]2[C@@H]3CC[C@@H]4C[C@H](O)CC[C@]4(C)[C@H]3CC[C@]12C [LCA, lithocholic acid]
CC50 at 24 h [1]: 147 µM
Effect on cellular ATP (rat SCH [12]): concentration-dependent decrease
CC50 at 24 h [2]: 155 µM
Effect on cellular ATP (human SCH [13]): delayed decrease
CC50 at 24 h [3]: 146 µM
LDH leakage (rat SCH [14]): increase
LDH leakage (human SCH [15]): minimal
Intracellular concentration in human SCH compared with rat SCH (human SCH [11]): comparable

CC(C)c1nc(CN(C)C(=O)N[C@H](C(=O)N[C@@H](Cc2ccccc2)C[C@H](O)[C@H](Cc2ccccc2)NC(=O)OCc2cncs2)C(C)C)cs1 [ritonavir]
Effect on TCA biliary excretion (BEI and CLb, app, in vitro) (rat SCH [9]): significantly reduced
Effect on intracellular accumulation of TCA (rat SCH [9]): increased
Effect on canalicular efflux of TCA (human SCH [8]): significantly reduced
Effect on 99mTc–mebrofenin uptake (human SCH [16]): decreased
Effect on BEI of 99mTc–mebrofenin (human SCH [16]): without changing

Cc1cc2c(cc1CC(=O)c1sccc1S(=O)(=O)Nc1onc(C)c1Cl)OCO2 [sitaxsentan]
Hepatocyte concentration relative to medium concentration (human SCH [6]): 40 fold
Effect on sodium-dependent TCA uptake (human SCH [7]): significantly inhibited

COc1ccc(Cl)cc1C(=O)NCCc1ccc(S(=O)(=O)NC(=O)NC2CCCCC2)cc1 [glyburide]
Effect on canalicular efflux of TCA (human SCH [8]): minimal effects

C[C@H](CCC(=O)NCC(=O)O)[C@H]1CC[C@H]2[C@@H]3CC[C@@H]4C[C@H](O)CC[C@]4(C)[C@H]3CC[C@]12C [GLCA, glycolithocholic acid]
Intracellular concentration in human SCH compared with rat SCH (human SCH [11]): comparable

Cc1c(C)c2c(c(C)c1O)CCC(C)(COc1ccc(CC3SC(=O)NC3=O)cc1)O2 (stereo not shown) [TGZ, troglitazone]
Effect on canalicular efflux of TCA (human SCH [8]): significantly reduced
Effect on CDCA accumulation in hepatocytes (rat SCH [17]): increased
Effect on cellular accumulation of TCA (rat SCH [17]): decreased

COc1ccccc1Oc1c(NS(=O)(=O)c2ccc(C(C)(C)C)cc2)nc(-c2ncccn2)nc1OCCO [bosentan]
Hepatocyte concentration relative to medium concentration (human SCH [6]): 20 fold
Effect on BEI and apparent biliary clearance of TCA (TCA biliary excretion) (human SCH [7]): significantly decreased
Effect on sodium-dependent TCA uptake (human SCH [7]): significantly inhibited
Effect on total (cell + bile) and cellular accumulation of TCA (human SCH [7]): significantly decreased

CC#C[C@]1(O)CC[C@H]2[C@@H]3CCC4=CC(=O)CCC4=C3[C@@H](c3ccc(N(C)C)cc3)C[C@@]21C [mifepristone]
Effect on canalicular efflux of TCA (human SCH [8]): minimal effects

COC(c1ccccc1)(c1ccccc1)[C@H](Oc1nc(C)cc(C)n1)C(=O)O [ambrisentan]
Hepatocyte concentration relative to medium concentration (human SCH [6]): 2 fold
Effect on BEI and apparent biliary clearance of TCA (TCA biliary excretion) (human SCH [7]): minimal inhibitory effects

CC(C)CN(C[C@@H](O)[C@H](Cc1ccccc1)NC(=O)O[C@H]1CO[C@H]2OCC[C@H]21)S(=O)(=O)c1ccc(N)cc1 [darunavir]
Effect on CGamF accumulation (human SCH [5]): potently inhibited

COC(=O)C1=C(C)NC(C)=C(C(=O)OC(C)C)C1c1cccc2nonc12 (stereo not shown) [isradipine]
Effect on canalicular efflux of TCA (human SCH [8]): minimal effects
